Assay results as given in US20130064831A1, “IMMUNOTHERAPEUTIC DOSING REGIMENS AND COMBINATIONS THEREOF” (Bristol-Myers Squibb Company, priority 2010, published 2013).

Experiments:
melanoma = conditions: cited from earlier work
[1] = test system: ovarian or prostate cancer; conditions: some patients with ovarian or prostate cancer; cited from earlier work
NSCLC Subjects = experiment: CA184041 phase II trial: safety, exposure and discontinuation; conditions: in vivo
Description: Blinded Study Drug: Ipilimumab 10 mg/kg or matched placebo administered as a single dose intravenously over 90 minutes every 3 weeks (up to 6 doses) as part of induction. Subjects may receive additional maintenance Ipilimumab/placebo at a dose of 10 mg/kg and administered intravenously over 90 minutes every 12 weeks starting 24 weeks after the first Ipilimumab/placebo dose. Dose reductions were not permitted. […] Dose modifications (reductions as well as delays) are as per product label. PARAPLATIN®: AUC=6 administered as a single dose intravenously over 30 minutes every 3 weeks (up to 6 doses). Dose modifications (reductions as well as delays) are as per product label. Treatment with blinded Ipilimumab (active or placebo) proceeded until immune-related tumor progression as defined by the irRC is observed or intolerable toxicity occurs.
Safety was summarized and listed for all treated subjects using the National Cancer Institute (NCI) Common Terminology Criteria for Adverse Events (CTCAE) version 3.0 by treatment arm for each tumor type. All treatment emergent AEs, drug-related treatment emergent AEs, serious AEs and drug-related SAEs were tabulated using worst grade per NCI CTCAE v3.0 criteria by system, organ, class, and preferred term. The listings by subject were produced for all deaths, all SAEs and all AEs leading to discontinuation of study drug. […]

Ipilimumab: fully human IgG1 anti-CTLA-4 monoclonal antibody, CAS 477202-00-9, light/heavy chain variable regions SEQ ID NO:1 and 2
tumor regressions (melanoma; initial studies in patients with melanoma): objective durable tumor regressions
antitumor activity (melanoma; patients with advanced melanoma): demonstrated antitumor activity
serum tumor markers [1]: reductions of serum tumor markers
potentiation of chemotherapy-related toxicity (NSCLC Subjects): did not potentiate chemotherapy-related toxicity
